Measurements published in the kinase profiling compilation of Christmann-Franck et al. (2016).

Experiments:
Assay in all cases: KINOMEscan competition binding
Settings in all cases: compound 10.0 µM
MELK (human) = MELK (human) (UniProt Q14680)
RPS6KA3 KD1 (human) = RPS6KA3 KD1 (human) (UniProt P51812)
PRKD3 (human) = PRKD3 (human) (UniProt O94806)
PAK6 (human) = PAK6 (human) (UniProt Q9NQU5)
WEE1 (human) = WEE1 (human) (UniProt P30291)
PRKAA1 (human) = PRKAA1 (human) (UniProt Q13131)
ABL2 (human) = ABL2 (human) (UniProt P42684)
ROS1 (human) = ROS1 (human) (UniProt P08922)
EPHB4 (human) = EPHB4 (human) (UniProt P54760)
CSNK1G2 (human) = CSNK1G2 (human) (UniProt P78368)
CSNK2A2 (human) = CSNK2A2 (human) (UniProt P19784)
AURKB (human) = AURKB (human) (UniProt Q96GD4)
TNK2 (human) = TNK2 (human) (UniProt Q07912)
Sequence of TNK2 (human) (Q07912 whole entry, looked up): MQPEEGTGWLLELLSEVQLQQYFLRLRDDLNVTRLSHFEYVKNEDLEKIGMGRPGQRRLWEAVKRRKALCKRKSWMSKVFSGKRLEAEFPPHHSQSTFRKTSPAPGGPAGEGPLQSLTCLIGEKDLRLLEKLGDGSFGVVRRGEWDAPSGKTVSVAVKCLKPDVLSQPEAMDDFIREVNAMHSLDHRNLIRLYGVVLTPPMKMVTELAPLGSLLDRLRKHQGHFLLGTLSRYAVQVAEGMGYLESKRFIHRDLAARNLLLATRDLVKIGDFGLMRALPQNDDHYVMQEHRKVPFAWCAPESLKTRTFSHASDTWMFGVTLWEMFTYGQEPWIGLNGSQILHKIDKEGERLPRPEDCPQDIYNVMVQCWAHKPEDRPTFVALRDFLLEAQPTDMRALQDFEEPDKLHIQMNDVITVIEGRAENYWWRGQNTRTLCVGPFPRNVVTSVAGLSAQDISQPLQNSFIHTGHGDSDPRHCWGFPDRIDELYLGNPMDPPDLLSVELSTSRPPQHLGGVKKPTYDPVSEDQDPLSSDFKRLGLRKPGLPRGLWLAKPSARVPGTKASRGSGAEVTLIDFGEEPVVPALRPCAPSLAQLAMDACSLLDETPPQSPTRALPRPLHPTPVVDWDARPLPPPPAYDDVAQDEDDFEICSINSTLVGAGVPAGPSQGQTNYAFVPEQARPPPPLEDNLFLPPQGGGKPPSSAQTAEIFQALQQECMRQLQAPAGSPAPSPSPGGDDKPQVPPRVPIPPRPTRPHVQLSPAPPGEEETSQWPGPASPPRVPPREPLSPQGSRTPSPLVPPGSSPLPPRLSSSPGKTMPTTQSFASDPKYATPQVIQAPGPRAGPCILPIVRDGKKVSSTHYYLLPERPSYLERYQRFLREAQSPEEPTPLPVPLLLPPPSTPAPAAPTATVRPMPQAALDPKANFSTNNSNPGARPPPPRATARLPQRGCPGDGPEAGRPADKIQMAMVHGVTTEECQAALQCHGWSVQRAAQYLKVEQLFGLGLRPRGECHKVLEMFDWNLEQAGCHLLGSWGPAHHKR

FER (human) = FER (human) (UniProt P16591)
DCLK2 (human) = DCLK2 (human) (UniProt Q8N568)
CSNK2A1 (human) = CSNK2A1 (human) (UniProt P68400)
ERBB4 (human) = ERBB4 (human) (UniProt Q15303)
PIP4K2B (human) = PIP4K2B (human) (UniProt P78356)
FLT1 (human) = FLT1 (human) (UniProt P17948)
MAP3K10 (human) = MAP3K10 (human) (UniProt Q02779)
Sequence of MAP3K10 (human) (Q02779 whole entry, looked up): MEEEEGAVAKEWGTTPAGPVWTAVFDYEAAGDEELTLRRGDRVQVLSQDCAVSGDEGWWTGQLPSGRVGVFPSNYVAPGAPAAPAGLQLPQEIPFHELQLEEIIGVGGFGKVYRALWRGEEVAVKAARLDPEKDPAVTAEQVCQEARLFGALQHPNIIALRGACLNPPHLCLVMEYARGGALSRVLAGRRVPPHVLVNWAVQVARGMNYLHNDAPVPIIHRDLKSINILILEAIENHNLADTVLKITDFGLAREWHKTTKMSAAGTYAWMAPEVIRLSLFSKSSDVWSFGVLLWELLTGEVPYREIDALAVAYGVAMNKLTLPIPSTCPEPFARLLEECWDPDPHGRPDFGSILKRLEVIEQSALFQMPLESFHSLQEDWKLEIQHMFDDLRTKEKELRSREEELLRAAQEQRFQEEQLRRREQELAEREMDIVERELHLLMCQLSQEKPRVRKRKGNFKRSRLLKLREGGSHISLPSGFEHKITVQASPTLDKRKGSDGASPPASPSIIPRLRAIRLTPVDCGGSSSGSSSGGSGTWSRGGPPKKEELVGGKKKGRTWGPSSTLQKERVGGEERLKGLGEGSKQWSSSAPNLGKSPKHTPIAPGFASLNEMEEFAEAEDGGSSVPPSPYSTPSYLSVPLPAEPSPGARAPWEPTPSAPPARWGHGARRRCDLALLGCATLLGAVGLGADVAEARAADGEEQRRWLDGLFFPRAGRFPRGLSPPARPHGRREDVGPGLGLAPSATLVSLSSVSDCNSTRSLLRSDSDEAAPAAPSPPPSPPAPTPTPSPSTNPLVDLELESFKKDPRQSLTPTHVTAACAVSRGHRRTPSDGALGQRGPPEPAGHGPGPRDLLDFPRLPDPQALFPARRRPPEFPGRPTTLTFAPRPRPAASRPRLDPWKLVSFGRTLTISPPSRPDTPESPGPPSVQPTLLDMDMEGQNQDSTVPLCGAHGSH

STK38L (human) = STK38L (human) (UniProt Q9Y2H1)
ULK3 (human) = ULK3 (human) (UniProt Q6PHR2)
TGFBR1 (human) = TGFBR1 (human) (UniProt P36897)
STK24 (human) = STK24 (human) (UniProt Q9Y6E0)
BMPR2 (human) = BMPR2 (human) (UniProt Q13873)
CDK7 (human) = CDK7 (human) (UniProt P50613)
Sequence of CDK7 (human) (P50613 whole entry, looked up): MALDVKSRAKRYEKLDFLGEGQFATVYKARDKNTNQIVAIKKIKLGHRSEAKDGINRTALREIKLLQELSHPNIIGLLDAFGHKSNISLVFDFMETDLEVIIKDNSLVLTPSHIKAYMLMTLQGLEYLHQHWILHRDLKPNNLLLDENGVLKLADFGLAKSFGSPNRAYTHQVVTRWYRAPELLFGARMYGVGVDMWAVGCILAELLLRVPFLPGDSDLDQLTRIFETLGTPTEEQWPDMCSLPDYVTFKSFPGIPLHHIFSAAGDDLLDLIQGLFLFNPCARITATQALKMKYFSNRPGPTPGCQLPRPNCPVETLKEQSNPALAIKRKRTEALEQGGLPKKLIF

MAP2K1 (human) = MAP2K1 (human) (UniProt Q02750)
MAP3K5 (human) = MAP3K5 (human) (UniProt Q99683)
Sequence of MAP3K5 (human) (Q99683 whole entry, looked up): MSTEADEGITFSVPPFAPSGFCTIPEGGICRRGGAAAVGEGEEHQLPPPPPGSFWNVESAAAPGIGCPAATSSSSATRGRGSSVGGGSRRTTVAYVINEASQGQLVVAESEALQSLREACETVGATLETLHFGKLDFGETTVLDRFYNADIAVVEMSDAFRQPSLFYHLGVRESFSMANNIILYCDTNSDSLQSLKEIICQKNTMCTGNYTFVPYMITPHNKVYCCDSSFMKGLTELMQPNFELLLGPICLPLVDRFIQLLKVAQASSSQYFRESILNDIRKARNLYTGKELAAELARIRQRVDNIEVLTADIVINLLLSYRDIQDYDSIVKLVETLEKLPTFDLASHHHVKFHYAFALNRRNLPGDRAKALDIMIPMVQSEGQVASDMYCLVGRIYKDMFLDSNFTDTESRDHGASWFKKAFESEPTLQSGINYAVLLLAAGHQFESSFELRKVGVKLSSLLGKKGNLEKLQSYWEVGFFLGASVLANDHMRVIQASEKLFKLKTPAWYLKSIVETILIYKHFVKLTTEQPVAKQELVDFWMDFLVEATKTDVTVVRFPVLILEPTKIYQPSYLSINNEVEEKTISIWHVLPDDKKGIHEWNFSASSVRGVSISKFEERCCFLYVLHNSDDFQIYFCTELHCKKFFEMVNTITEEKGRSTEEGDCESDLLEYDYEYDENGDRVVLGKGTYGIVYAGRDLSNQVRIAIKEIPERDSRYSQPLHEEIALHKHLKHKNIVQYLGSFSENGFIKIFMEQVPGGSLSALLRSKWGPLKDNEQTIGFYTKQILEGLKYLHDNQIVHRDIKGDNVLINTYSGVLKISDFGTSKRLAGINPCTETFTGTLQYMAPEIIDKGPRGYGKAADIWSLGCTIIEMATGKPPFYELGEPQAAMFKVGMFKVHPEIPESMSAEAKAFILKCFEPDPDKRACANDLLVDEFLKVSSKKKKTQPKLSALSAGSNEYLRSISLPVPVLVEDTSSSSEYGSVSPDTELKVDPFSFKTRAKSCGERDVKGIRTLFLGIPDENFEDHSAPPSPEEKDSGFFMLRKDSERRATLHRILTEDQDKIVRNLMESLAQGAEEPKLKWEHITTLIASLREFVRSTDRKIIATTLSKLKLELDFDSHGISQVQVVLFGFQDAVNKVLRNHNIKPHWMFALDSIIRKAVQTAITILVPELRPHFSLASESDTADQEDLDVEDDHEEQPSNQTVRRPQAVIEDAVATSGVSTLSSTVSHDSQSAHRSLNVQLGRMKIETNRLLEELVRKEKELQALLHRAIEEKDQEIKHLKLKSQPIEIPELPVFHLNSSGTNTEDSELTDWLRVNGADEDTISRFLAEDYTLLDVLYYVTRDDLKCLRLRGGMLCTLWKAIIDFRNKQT

ULK1 (human) = ULK1 (human) (UniProt O75385)
ZAP70 (human) = ZAP70 (human) (UniProt P43403)
Sequence of ZAP70 (human) (P43403 whole entry, looked up): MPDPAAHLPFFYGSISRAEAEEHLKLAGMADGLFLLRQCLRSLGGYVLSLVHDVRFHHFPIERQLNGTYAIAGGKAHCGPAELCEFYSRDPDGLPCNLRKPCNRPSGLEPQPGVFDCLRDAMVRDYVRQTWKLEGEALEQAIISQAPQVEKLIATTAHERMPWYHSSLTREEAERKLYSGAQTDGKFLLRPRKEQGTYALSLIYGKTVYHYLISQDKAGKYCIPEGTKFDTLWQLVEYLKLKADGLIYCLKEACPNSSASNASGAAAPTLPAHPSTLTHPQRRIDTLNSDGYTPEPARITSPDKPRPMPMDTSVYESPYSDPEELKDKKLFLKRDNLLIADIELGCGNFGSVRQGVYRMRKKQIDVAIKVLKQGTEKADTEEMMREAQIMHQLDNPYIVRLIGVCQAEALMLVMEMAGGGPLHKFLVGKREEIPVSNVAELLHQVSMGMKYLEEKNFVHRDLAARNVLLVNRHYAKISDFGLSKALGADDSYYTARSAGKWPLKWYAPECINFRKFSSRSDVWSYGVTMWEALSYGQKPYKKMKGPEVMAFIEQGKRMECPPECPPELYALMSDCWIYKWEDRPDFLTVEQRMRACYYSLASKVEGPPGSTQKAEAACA

CSK (human) = CSK (human) (UniProt P41240)
EPHA6 (human) = EPHA6 (human) (UniProt Q9UF33)
CDK3 (human) = CDK3 (human) (UniProt Q00526)
PTK2 (human) = PTK2 (human) (UniProt Q05397)
RPS6KA4 KD2 (human) = RPS6KA4 KD2 (human) (UniProt O75676)
PIP5K1A (human) = PIP5K1A (human) (UniProt Q99755)
NUAK1 (human) = NUAK1 (human) (UniProt O60285)
MINK1 (human) = MINK1 (human) (UniProt Q8N4C8)
RIOK3 (human) = RIOK3 (human) (UniProt O14730)
STK36 (human) = STK36 (human) (UniProt Q9NRP7)

Sequence of RPS6KA3 KD1 (human) (P51812 whole entry, looked up): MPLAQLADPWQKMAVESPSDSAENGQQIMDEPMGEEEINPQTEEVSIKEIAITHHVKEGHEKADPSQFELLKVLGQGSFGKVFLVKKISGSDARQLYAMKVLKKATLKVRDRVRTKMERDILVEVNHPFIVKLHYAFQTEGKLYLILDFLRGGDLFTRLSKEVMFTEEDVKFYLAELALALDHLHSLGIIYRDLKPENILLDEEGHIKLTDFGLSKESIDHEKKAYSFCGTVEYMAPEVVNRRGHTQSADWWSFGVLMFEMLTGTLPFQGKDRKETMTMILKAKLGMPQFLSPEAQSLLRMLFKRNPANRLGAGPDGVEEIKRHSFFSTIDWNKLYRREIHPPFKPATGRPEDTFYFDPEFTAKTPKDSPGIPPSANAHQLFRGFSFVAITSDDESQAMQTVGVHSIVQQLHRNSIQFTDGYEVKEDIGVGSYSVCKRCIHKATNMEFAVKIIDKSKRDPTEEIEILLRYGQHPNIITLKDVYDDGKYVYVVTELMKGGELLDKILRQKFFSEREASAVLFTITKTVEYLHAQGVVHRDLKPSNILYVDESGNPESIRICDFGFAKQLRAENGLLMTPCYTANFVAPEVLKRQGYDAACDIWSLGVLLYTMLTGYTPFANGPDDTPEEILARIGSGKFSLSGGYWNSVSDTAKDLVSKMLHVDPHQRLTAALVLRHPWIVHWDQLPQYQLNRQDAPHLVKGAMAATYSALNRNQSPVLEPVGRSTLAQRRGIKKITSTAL

| SMILES | kinase still bound, per cent of control (MELK (human)) [%] | kinase still bound, per cent of control (RPS6KA3 KD1 (human)) [%] | kinase still bound, per cent of control (PRKD3 (human)) [%] | kinase still bound, per cent of control (PAK6 (human)) [%] | kinase still bound, per cent of control (WEE1 (human)) [%] | kinase still bound, per cent of control (PRKAA1 (human)) [%] | kinase still bound, per cent of control (ABL2 (human)) [%] | kinase still bound, per cent of control (ROS1 (human)) [%] | kinase still bound, per cent of control (EPHB4 (human)) [%] | kinase still bound, per cent of control (CSNK1G2 (human)) [%] | kinase still bound, per cent of control (AURKB (human)) [%] | kinase still bound, per cent of control (TNK2 (human)) [%] | kinase still bound, per cent of control (FER (human)) [%] | kinase still bound, per cent of control (DCLK2 (human)) [%] | kinase still bound, per cent of control (CSNK2A1 (human)) [%] | kinase still bound, per cent of control (ERBB4 (human)) [%] | kinase still bound, per cent of control (PIP4K2B (human)) [%] | kinase still bound, per cent of control (FLT1 (human)) [%] | kinase still bound, per cent of control (MAP3K10 (human)) [%] | kinase still bound, per cent of control (STK38L (human)) [%] | further results |
| --- | --- | --- | --- | --- | --- | --- | --- | --- | --- | --- | --- | --- | --- | --- | --- | --- | --- | --- | --- | --- | --- |
| O=C(NC1CC1)c1cccc(-c2ccc3c(NC(=O)C4CC4)n[nH]c3c2)c1 | 64 | 86 | 100 | 61 | 84 | 60 | 100 | 100 | 100 | 94 | 30 | 100 | 78 | 100 | 62 | 95 | 5.6 | 100 | 95 | 96 | kinase still bound, per cent of control (CSNK2A2 (human)): 16%; kinase still bound, per cent of control (ULK3 (human)): 13%; kinase still bound, per cent of control (TGFBR1 (human)): 77%; kinase still bound, per cent of control (STK24 (human)): 82%; kinase still bound, per cent of control (BMPR2 (human)): 91%; kinase still bound, per cent of control (CDK7 (human)): 18%; kinase still bound, per cent of control (MAP2K1 (human)): 100%; kinase still bound, per cent of control (MAP3K5 (human)): 100%; kinase still bound, per cent of control (ULK1 (human)): 100%; kinase still bound, per cent of control (ZAP70 (human)): 90%; kinase still bound, per cent of control (CSK (human)): 84%; kinase still bound, per cent of control (EPHA6 (human)): 100%; kinase still bound, per cent of control (CDK3 (human)): 7.2%; kinase still bound, per cent of control (PTK2 (human)): 90%; kinase still bound, per cent of control (RPS6KA4 KD2 (human)): 100%; kinase still bound, per cent of control (PIP5K1A (human)): 28%; kinase still bound, per cent of control (NUAK1 (human)): 100%; kinase still bound, per cent of control (MINK1 (human)): 43%; kinase still bound, per cent of control (RIOK3 (human)): 6.8%; kinase still bound, per cent of control (STK36 (human)): 88% |
| C=CC(=O)Nc1cccc(Nc2nc(N[C@H]3CC[C@H](N(C)C)CC3)nc3c2ncn3C(C)C)c1 | 25 | 3.6 | 80 | 47 | 51 | 78 | 94 | 99 | 60 | 7.9 | 73 | 46 | 74 | 89 | 54 | 76 | 54 | 100 | 84 | 41 | kinase still bound, per cent of control (CSNK2A2 (human)): 48%; kinase still bound, per cent of control (ULK3 (human)): 52%; kinase still bound, per cent of control (TGFBR1 (human)): 100%; kinase still bound, per cent of control (STK24 (human)): 43%; kinase still bound, per cent of control (BMPR2 (human)): 79%; kinase still bound, per cent of control (CDK7 (human)): 15%; kinase still bound, per cent of control (MAP2K1 (human)): 83%; kinase still bound, per cent of control (MAP3K5 (human)): 100%; kinase still bound, per cent of control (ULK1 (human)): 0.7%; kinase still bound, per cent of control (ZAP70 (human)): 77%; kinase still bound, per cent of control (CSK (human)): 90%; kinase still bound, per cent of control (EPHA6 (human)): 73%; kinase still bound, per cent of control (CDK3 (human)): 95%; kinase still bound, per cent of control (PTK2 (human)): 26%; kinase still bound, per cent of control (RPS6KA4 KD2 (human)): 52%; kinase still bound, per cent of control (PIP5K1A (human)): 36%; kinase still bound, per cent of control (NUAK1 (human)): 93%; kinase still bound, per cent of control (MINK1 (human)): 27%; kinase still bound, per cent of control (RIOK3 (human)): 34%; kinase still bound, per cent of control (STK36 (human)): 100% |
| O=C(O)c1ccc(Nc2ncc3c(n2)-c2ccc(Cl)cc2C(c2c(F)cccc2F)=NC3)cc1 | 81 | 28 | 96 | 79 | 100 | 38 | 30 | 23 | 11 | 66 | 0.3 | 46 | 22 | 94 | 29 | 52 | 100 | 12 | 67 | 100 | kinase still bound, per cent of control (ULK3 (human)): 57%; kinase still bound, per cent of control (TGFBR1 (human)): 98%; kinase still bound, per cent of control (STK24 (human)): 76%; kinase still bound, per cent of control (BMPR2 (human)): 26%; kinase still bound, per cent of control (CDK7 (human)): 77%; kinase still bound, per cent of control (MAP2K1 (human)): 86%; kinase still bound, per cent of control (MAP3K5 (human)): 100%; kinase still bound, per cent of control (ULK1 (human)): 40%; kinase still bound, per cent of control (ZAP70 (human)): 100%; kinase still bound, per cent of control (CSK (human)): 15%; kinase still bound, per cent of control (EPHA6 (human)): 14%; kinase still bound, per cent of control (CDK3 (human)): 100%; kinase still bound, per cent of control (PTK2 (human)): 23%; kinase still bound, per cent of control (RPS6KA4 KD2 (human)): 100%; kinase still bound, per cent of control (PIP5K1A (human)): 100%; kinase still bound, per cent of control (NUAK1 (human)): 67%; kinase still bound, per cent of control (MINK1 (human)): 100%; kinase still bound, per cent of control (RIOK3 (human)): 100%; kinase still bound, per cent of control (STK36 (human)): 100% |
